Data as given in PMC5845004, “Novel (p)ppGpp Binding and Metabolizing Proteins of Escherichia coli” (mBio, 2018).
“Also recorded” adds a separate entry of the source. Where two headings read alike, the source gives them in different places.

Assays:
[1] = target: T1, Apt (Escherichia coli, UniProt P69503); experiment: DRaCALA binding, purified Apt; set-up: species or system E. coli; conditions: up to 150 µM Apt
[2] = target: T2, PurA (Escherichia coli, UniProt P0A7D4); experiment: DRaCALA binding, purified PurA; set-up: species or system E. coli; conditions: PurA up to 150 µM
T2 sequence (P0A7D4 whole entry): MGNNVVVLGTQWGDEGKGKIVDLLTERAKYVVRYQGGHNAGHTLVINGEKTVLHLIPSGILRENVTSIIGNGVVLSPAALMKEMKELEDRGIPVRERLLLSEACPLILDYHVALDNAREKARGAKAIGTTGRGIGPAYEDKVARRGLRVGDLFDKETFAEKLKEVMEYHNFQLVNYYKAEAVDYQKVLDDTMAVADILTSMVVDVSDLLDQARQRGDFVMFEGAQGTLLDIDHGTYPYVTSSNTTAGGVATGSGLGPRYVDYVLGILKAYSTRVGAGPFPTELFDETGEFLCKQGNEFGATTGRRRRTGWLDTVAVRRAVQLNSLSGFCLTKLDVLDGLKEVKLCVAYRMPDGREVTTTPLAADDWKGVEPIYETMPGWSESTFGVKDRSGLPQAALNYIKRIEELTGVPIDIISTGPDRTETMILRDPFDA
Protocol: (§5) For Kd measurements by DRaCALA, 2-fold serial dilutions from the highest possible concentrations of each purified protein were prepared in binding buffer B, and approximately 2 nM concentrations of α-^32P-labeled ppGpp, pppGpp, GTP, and GDP were added. The mixtures were incubated for 5 min at RT before spotting of 2 µl of the reaction mixtures onto nitrocellulose membranes. The fractions of bound ligand and the apparent Kd values were calculated as previously described ([37]). For competition assays, purified proteins at the specified concentrations were incubated with 2 nM [α-^32P]ppGpp or [α-^32P]pppGpp in the presence of 100 μM competitor nucleotides in binding buffer B. The reaction mixtures were incubated for 5 min at RT, 2 µl was spotted onto nitrocellulose membranes, and the values corresponding to the bound fractions were determined. EDTA was added at excess concentrations as specified for each case.

[3] = target: T3, YgdH (Escherichia coli, UniProt P0ADR8); experiment: DRaCALA binding and Kd determination, purified YgdH; set-up: species or system E. coli; conditions: 20 µM YgdH, binding buffer with 10 mM MgCl2, no EDTA
T3 sequence (P0ADR8 whole entry): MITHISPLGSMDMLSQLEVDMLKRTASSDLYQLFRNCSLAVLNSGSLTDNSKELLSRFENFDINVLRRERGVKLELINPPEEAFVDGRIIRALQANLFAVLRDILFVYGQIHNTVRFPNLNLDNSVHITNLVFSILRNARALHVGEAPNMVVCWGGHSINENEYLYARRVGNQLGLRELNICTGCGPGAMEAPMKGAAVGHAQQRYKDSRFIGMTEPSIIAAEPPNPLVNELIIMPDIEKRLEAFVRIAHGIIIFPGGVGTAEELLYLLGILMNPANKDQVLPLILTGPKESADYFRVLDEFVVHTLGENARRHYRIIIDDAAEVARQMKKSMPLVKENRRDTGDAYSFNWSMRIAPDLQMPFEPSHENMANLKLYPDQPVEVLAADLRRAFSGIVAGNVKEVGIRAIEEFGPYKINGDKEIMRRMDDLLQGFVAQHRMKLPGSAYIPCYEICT
Protocol: For Kd measurements by DRaCALA, 2-fold serial dilutions from the highest possible concentrations of each purified protein were prepared in binding buffer B, and approximately 2 nM concentrations of α-^32P-labeled ppGpp, pppGpp, GTP, and GDP were added. The mixtures were incubated for 5 min at RT before spotting of 2 µl of the reaction mixtures onto nitrocellulose membranes. […] For competition assays, purified proteins at the specified concentrations were incubated with 2 nM [α-^32P]ppGpp or [α-^32P]pppGpp in the presence of 100 μM competitor nucleotides in binding buffer B. The reaction mixtures were incubated for 5 min at RT, 2 µl was spotted onto nitrocellulose membranes, and the values corresponding to the bound fractions were determined. EDTA was added at excess concentrations as specified for each case.

[4] = target: Gpt (Escherichia coli, UniProt P0A9M5); experiment: DRaCALA competition assay, Gpt; assay type: binding, E. coli; conditions: 20 µM Gpt, 2 nM hot ppGpp, 100 µM cold competitor
Sequence of Gpt (P0A9M5 whole entry): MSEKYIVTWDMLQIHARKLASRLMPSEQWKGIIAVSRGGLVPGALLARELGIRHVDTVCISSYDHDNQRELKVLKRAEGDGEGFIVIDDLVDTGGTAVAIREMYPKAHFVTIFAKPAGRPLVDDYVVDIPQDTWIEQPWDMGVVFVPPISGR
Protocol: The mixtures were incubated for 5 min at RT before spotting of 2 µl of the reaction mixtures onto nitrocellulose membranes. […] For competition assays, purified proteins at the specified concentrations were incubated with 2 nM [α-^32P]ppGpp or [α-^32P]pppGpp in the presence of 100 μM competitor nucleotides in binding buffer B. The reaction mixtures were incubated for 5 min at RT, 2 µl was spotted onto nitrocellulose membranes, and the values corresponding to the bound fractions were determined.

[5] = target: Hpt (Escherichia coli, UniProt P0A9M2); experiment: DRaCALA competition assay, Hpt; assay type: binding, E. coli; conditions: 20 µM Hpt, 2 nM hot ppGpp, 100 µM cold competitor
Sequence of Hpt (P0A9M2 whole entry): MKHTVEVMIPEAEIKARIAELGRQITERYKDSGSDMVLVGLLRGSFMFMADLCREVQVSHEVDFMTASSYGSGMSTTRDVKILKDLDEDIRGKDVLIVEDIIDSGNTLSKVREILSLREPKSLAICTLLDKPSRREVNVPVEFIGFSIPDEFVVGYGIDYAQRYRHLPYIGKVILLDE
Protocol: as §5

[6] = target: T3, YgdH; experiment: DRaCALA competition assay, YgdH; assay type: binding, E. coli; conditions: 100 µM cold competitor; data not shown
[7] = target: MutT (Escherichia coli, UniProt P08337); experiment: In vitro cleavage assay (TLC), MutT; assay type: biochemical, E. coli; conditions: purified MutT, buffer B with 10 mM MgCl2, TLC
Sequence of MutT (P08337 whole entry): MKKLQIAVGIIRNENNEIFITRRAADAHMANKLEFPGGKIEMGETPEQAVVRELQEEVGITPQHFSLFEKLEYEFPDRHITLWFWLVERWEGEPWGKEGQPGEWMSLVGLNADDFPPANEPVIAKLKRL
Protocol: (§1) The purified His6-MutT and His6-NudG proteins were tested for their relative levels of cleavage of ppGpp compared to those seen with their native substrates. For this, a 1 μM concentration of each protein and a 10 nM concentration of [α-^32P]ppGpp were used together with 100 μM concentrations of cold competitors [ppGpp, GTP, ATP, 8-oxo-(d)GTP, 2-hydroxyl-(d)ATP] or 50 mM EDTA in buffer B. The samples were incubated at 30°C for 10 min and for 1 h before the reactions were stopped by adding 50 mM EDTA. The cleavage products were resolved by TLC as described above. The purified His6-NadR and His6-TrmE proteins were tested for their cleavage of both GTP and ppGpp. For cleavage of GTP, 10 μM concentrations of His6-MBP, His6-TrmE, and 20 μM His6-NadR proteins were used with 2 nM [α-^32P]GTP and 100 μM cold GTP in buffer B. For cleavage of ppGpp, 10 μM concentrations of His6-TrmE, His6-MBP, and His6-NadR proteins were used with 10 nM [α-^32P]ppGpp in buffer B. Of note, for His6-TrmE, another reaction was also performed in buffer B supplemented with 100 mM KCl. The reactions were performed at RT for 10 min and were stopped by adding 17% formic acid. The cleavage products were resolved by TLC as described above.
(§2) A 20 μM concentration of each of purified proteins MutT, NudG, NadR, TrmE, and MBP (as a negative control) was incubated with 100 μM ppGpp in buffer B (containing 40 mM Tris [pH 7.5], 100 mM NaCl, and 10 mM MgCl2) for 20 min at room temperature. Samples were snap-frozen on dry ice and analyzed with UPLC-MS afterward. All samples and buffers were stored at −80°C, thawed on ice, and kept at 4°C during analysis. For the analysis, a UPLC-quadrupole time of flight (UPLC-qTOF) method (Waters) was used. Analysis conditions were as follows: column, zic-HILIC (Merck Millipore) (150 by 2.1 mm, […], gradient elution, flow rate set to 0.3 ml/min); mobile phase A, 10 mM ammonium acetate (pH 5); mobile phase B, 90% acetonitrile with 10 mM ammonium acetate (pH 5). The gradient was set up as follows: min 0 to 2, 80% B; min 2 to 16, 80% B to 50% B; hold until min 20; injection volume, 4 µl. The detection conditions were as follows: photodiode array detector (PDA), […] (evaluated at 260 nm); MS, ionization; electrospray ionization (ESI+), scan, 200 to 800 m/z with lock mass correction. Analytes were identified by their accurate mass and retention time data for a known standard dissolved in used buffer (for the chemicals of the same nominal masses). These standards were either synthesized and their structures confirmed by nuclear magnetic resonance (NMR) (for ppGp, pGpp, and pGp) or purchased (ppGpp was purchased from Jena Biocsience and GTP from Sigma-Aldrich).

[8] = target: T4, NudG (Escherichia coli, UniProt P77788); experiment: In vitro cleavage assay (TLC), NudG; assay type: biochemical, E. coli; conditions: purified NudG, buffer B with 10 mM MgCl2, TLC
T4 construct: expressed in transfected cells; host or cells: E. coli ASKA collection strain, IPTG-induced, whole-cell lysate
T4 sequence (P77788 whole entry): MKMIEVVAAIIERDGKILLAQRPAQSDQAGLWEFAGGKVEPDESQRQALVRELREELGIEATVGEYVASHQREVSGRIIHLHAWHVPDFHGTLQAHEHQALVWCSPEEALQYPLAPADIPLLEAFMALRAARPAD
Protocol: as §1, §2

[9] = target: TrmE (Escherichia coli, UniProt P25522); experiment: In vitro cleavage assay (TLC), TrmE; assay type: biochemical, E. coli; conditions: 10 µM TrmE, buffer B, with 100 mM potassium where stated, 10 min
Sequence of TrmE (P25522 whole entry): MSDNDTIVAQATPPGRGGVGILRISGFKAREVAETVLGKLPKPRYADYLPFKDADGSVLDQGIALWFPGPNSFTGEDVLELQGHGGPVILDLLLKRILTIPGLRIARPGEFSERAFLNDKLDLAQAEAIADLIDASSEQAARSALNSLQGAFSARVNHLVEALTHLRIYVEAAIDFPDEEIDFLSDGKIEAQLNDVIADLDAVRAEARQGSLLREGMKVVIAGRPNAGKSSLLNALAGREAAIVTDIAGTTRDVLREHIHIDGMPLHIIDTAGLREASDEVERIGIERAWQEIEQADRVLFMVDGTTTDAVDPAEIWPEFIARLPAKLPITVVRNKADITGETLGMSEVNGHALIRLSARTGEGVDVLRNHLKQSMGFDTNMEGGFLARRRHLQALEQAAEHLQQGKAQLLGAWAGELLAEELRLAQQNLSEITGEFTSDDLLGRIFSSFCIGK
Protocol: as §1
(§3) A 20 μM concentration of each of purified proteins MutT, NudG, NadR, TrmE, and MBP (as a negative control) was incubated with 100 μM ppGpp in buffer B (containing 40 mM Tris [pH 7.5], 100 mM NaCl, and 10 mM MgCl2) for 20 min at room temperature. Samples were snap-frozen on dry ice and analyzed with UPLC-MS afterward. All samples and buffers were stored at −80°C, thawed on ice, and kept at 4°C during analysis. For the analysis, a UPLC-quadrupole time of flight (UPLC-qTOF) method (Waters) was used. […] The detection conditions were as follows: photodiode array detector (PDA), […] (evaluated at 260 nm); MS, ionization; electrospray ionization (ESI+), scan, 200 to 800 m/z with lock mass correction. […]

[10] = target: NadR (Escherichia coli, UniProt P27278); experiment: In vitro cleavage assay (TLC), NadR; assay type: biochemical, E. coli; conditions: 10-20 µM NadR, buffer B with 100 mM NaCl, 10 min
Sequence of NadR (P27278 whole entry): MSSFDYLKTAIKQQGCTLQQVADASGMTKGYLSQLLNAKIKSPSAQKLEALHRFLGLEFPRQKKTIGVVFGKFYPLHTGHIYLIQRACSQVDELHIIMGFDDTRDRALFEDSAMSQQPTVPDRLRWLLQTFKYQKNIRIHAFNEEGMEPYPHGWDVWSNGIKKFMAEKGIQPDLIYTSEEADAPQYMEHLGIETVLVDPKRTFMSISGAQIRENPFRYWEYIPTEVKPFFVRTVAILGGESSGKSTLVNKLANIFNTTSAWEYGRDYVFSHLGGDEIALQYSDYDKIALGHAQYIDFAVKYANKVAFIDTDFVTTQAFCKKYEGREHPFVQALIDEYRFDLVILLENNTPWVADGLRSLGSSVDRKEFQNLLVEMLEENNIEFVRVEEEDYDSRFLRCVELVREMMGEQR
Protocol: The purified His6-MutT and His6-NudG proteins were tested for their relative levels of cleavage of ppGpp compared to those seen with their native substrates. For this, a 1 μM concentration of each protein and a 10 nM concentration of [α-^32P]ppGpp were used together with 100 μM concentrations of cold competitors [ppGpp, GTP, ATP, 8-oxo-(d)GTP, 2-hydroxyl-(d)ATP] or 50 mM EDTA in buffer B. The samples were incubated at 30°C for 10 min and for 1 h before the reactions were stopped by adding 50 mM EDTA. The cleavage products were resolved by TLC as described above. The purified His6-NadR and His6-TrmE proteins were tested for their cleavage of both GTP and ppGpp. […]
as §3, with “afterward.” for “afterward. All samples and buffers were stored at −80°C, thawed on ice, and kept at 4°C during analysis. For the analysis, a UPLC-quadrupole time of flight (UPLC-qTOF) method (Waters) was used.”

[11] = target: PhoA (Escherichia coli, UniProt P00634); experiment: Cleavage of (p)ppGpp by PhoA; assay type: biochemical, E. coli
Sequence of PhoA (P00634 22-471): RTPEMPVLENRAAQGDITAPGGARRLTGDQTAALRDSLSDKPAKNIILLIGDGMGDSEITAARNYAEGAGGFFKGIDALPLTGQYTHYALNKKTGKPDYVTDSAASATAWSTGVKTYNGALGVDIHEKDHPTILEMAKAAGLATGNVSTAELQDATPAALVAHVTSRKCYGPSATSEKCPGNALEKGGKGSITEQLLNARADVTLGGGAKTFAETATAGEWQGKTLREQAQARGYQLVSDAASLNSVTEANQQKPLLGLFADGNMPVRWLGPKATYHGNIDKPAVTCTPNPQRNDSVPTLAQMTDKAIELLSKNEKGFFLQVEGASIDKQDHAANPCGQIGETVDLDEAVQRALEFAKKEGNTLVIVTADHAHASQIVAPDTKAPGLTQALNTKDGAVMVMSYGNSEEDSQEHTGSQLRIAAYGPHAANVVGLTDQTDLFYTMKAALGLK
From the text: (§4) Supplement mbo001183765st1.docx, table 1: Table S1. List of proteins that bind or cleave (p)ppGpp. | column: Binding (Kd or otherwise stated in µM) or cleavage of (p)ppGpp in E. coli

[12] = target: T5, UshA (Escherichia coli, UniProt P07024); experiment: Cleavage of (p)ppGpp by UshA; assay type: biochemical, E. coli
T5 sequence (P07024 26-550): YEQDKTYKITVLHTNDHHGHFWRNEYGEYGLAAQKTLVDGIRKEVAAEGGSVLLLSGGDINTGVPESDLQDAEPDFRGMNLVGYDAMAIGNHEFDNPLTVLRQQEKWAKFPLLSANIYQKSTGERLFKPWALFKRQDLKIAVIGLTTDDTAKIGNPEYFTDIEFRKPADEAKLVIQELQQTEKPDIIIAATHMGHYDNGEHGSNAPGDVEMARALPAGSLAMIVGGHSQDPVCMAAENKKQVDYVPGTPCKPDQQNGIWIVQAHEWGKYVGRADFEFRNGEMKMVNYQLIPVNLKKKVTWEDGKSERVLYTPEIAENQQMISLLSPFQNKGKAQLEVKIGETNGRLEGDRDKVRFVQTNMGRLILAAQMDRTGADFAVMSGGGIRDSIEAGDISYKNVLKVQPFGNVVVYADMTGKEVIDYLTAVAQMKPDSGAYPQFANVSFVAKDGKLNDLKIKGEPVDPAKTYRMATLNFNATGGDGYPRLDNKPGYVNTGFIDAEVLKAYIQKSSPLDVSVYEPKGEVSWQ
From the text: as §4

[13] = target: T3, YgdH; experiment: TLC of YgdH binding reactions (degradation test); assay type: biochemical, E. coli; conditions: binding reactions analyzed by TLC
[14] = target: T1, Apt; conditions: ref Table S1 (2); cited from earlier work
[15] = target: GuaB; set-up: method as in ref 29, 31, 47 (Table S1 ref 5); conditions: 47 (Table S1 ref 5); cited from earlier work
[16] = target: T2, PurA; conditions: cited from earlier work
[17] = test system: DnaG; conditions: ref Table S1 (12); cited from earlier work
[18] = test system: DnaG; set-up: method as in Table S1 (13); conditions: ref Table S1 (13); read-out: IC50, B. subtilis DnaG; cited from earlier work
[19] = test system: RNAP /DksA; set-up: method as in Table S1 (14); conditions: ref Table S1 (14); cited from earlier work
[20] = target: YybT /GdpP; conditions: other bacteria, cited from earlier work
[21] = test system: RelA; set-up: method as in ref 36 (Table S1 ref 16); conditions: ref 36 (Table S1 ref 16); cited from earlier work

T1 sequence (P69503 whole entry): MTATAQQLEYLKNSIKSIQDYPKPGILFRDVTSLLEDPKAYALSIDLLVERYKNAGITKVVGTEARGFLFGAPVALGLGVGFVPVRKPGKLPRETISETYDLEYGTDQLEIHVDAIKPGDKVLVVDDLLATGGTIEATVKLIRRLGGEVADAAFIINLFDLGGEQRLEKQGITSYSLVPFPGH

For (p)ppGpp, the “binding to Apt” value [1] was “no significant binding”, the “binding to PurA” value [2] was “no specific binding; also recorded: does not significantly bind” and the “binding to purified YgdH” value [3] was “not able to significantly bind”. For the same substance, the “competition for bound [α-32P]ppGpp on Gpt” value [4] was “partially outcompete”, the “competition for bound [α-32P]ppGpp on Hpt” value [5] was “partially outcompete” and the “competition for (p)ppGpp binding to YgdH” value [6] was “could outcompete”. The “cleavage by MutT” value [7] was “Cleavage of (p)ppGpp into pGp”, the “cleavage by NudG” value [8] was “Cleavage of (p)ppGpp into pGp” and the “cleavage by TrmE” value [9] was “some degradation; also recorded: Cleavage of (p)ppGpp into ppGp/pGpp”. The “cleavage by NadR” value [10] was “some degradation; also recorded: Cleavage of (p)ppGpp into ppGp/pGpp”, the “cleavage by PhoA” value [11] was “Non-specific cleavage of (p)ppGpp into (p)pi” and the “cleavage by UshA” value [12] was “Non-specific cleavage of (p)ppGpp into (p)pi”. The “degradation by YgdH” value [13] was “not degraded”, the IC50 [14] was 1500 µM and the Ki [15] was 30 to 50 µM. For the same substance, the Ki ([16]; ref Table S1 (5)) was 140 µM, the Ki ([16]; ref Table S1 (6)) was 50 µM and the IC50 [17] was 200 µM. For the same substance, the IC50 [18] was 500 µM, the IC50 [19] was 15 µM and the Ki ([20]; ref Table S1 (21)) was 36 µM. The Ki ([20]; ref Table S1 (22)) was 130 µM and the “effect on RelA activity” value [21] was “Synthesis of and stimulated by (p)ppGpp; (16)”.
